Data as given in patent US20230158178A1, “Radionuclide Tracers of 1-Amino-3,4-Difluorocyclopentane-1-Carboxylic Acid, Derivatives, and Uses Thereof” (Emory University, priority 2020, published 2023).
Each block holds one compound with its values, some of them ahead of it.

What was measured:
[1] = tested on: intracranial 9 L gliosarcoma tumors; assay: MicroPET biodistribution in Fischer rats bearing intracranial 9 L gliosarcoma tumors; type: in vivo; details: for tumor uptake at final time point: final time point / final scan; for background uptake in healthy brain: normal brain, range over the study
Protocol: To gain insight into the biodistribution profiles of [^18F]3.09, [^18F]3.23, and [^18F]3.33 each was administered to Fischer rats bearing intracranial 9 L gliosarcoma tumors, which have been used extensively as models for human glioma. With each tracer, uptake in 9 L tumors was higher than in normal brain tissue at all time points, peaking near the 12.5-minute time point. Tumor uptake was highest with [^18F]3.09 and stayed fairly constant at 2.0-2.2% injected dose per gram of tissue (% ID/g) throughout the course of the study. […] While absolute uptake in tumors was highest with [^18F]3.09, background uptake in healthy brain was also highest with this stereoisomer, ranging from 0.59-0.96% % ID/g, compared to uptake values of 0.39-0.46 and 0.28-0.36% ID/g obtained with [^18F]3.23 and [^18F]3.33, respectively.
(§1) [^18F]trans-3,4-DFACPC ([^18F]3.23) was prepared in 1.3% decay corrected radiochemical yield in greater than 99% radio-chemical purity. Competitive uptake inhibition studies with 9 L gliosarcoma, human U87 ΔEGFR glioblastoma, and human DU145 androgen-independent prostate carcinoma cells to establish the mechanism of transport of [^18F]3.23, as well as its affinity for each cell line. The biodistribution of [^18F]3.23 was assessed in normal and intracranial 9 L gliosarcoma bearing rats via micro-PET imaging.

[2] = tested on: human DU145 androgen-independent prostate carcinoma; assay: Cell uptake study in DU145 prostate carcinoma cells; type: cell-based; details: for uptake in DU145 cells: no inhibitor, 30 min incubation
Protocol: (§2) Consistent with this reasoning, having knowledge of which systems take part in transporting a particular amino acid is of value, since this information can be used to determine which tumor types the amino acid may be useful for imaging. To establish which systems are responsible for transporting a particular AA, cell uptake inhibition studies are performed. In these studies, a known number of cells of a certain line are suspended in a media containing a known quantity of an amino acid radiotracer and incubated for a set period to allow for the amino acid to be transported into the cells. […] The radioactivity present within the cells after rinsing is measured and expressed as a normalized percent uptake of the radioactive amino acid dose that the cells were initially exposed to. This experiment establishes the degree to which a given amino acid is taken up by a group of cells in the absence of any perturbing conditions and serves as the control.
(§3) With this information in hand, the cell uptake experiment is performed again, but in the presence of an excess of a substrate known to have a high affinity for a particular transport system. The excess substrate floods the targeted system, competitively inhibiting the transport of other amino acids. Consequently, any reduction in cellular uptake of radioactivity relative to the control experiment is assumed to arise from loss of amino acid transport by the inhibited system. It follows that if inhibition of a transport system results in reduced uptake of a given amino acid, then that system contributes to cellular transport of the amino acid. Furthermore, the degree to which the system participates in transport can be roughly evaluated by the percent loss (inhibition) of amino acid uptake relative to the control. In addition to delineating transport mechanisms, cell uptake studies provide insight into the avidity of a particular cell line for an amino acid.
(§4) The potential of [^18F]3.09, [^18F]3.23, and [^18F]3.33 as PET radiotracers were evaluated for imaging brain and prostate cancer, cell uptake studies with rat 9 L gliosarcoma, human U87 ΔEGFR glioblastoma, and human DU145 androgen-independent prostate carcinoma. Uptake data for anti-3-[^18F]-FACBC were also collected under the same conditions for comparison. Alpha-(methylamino)isobutyric acid (MeAIB) was used as a competitive inhibitor for system A transport, 2-amino-bicyclo[2.2.1]heptane2-carboxylic acid (BCH) was used to inhibit system L, and the combination of alanine, serine, and cysteine was used for inhibition of system ASC.

[3] = tested on: 9 L, U87 ΔEGFR, and DU145 cell; assay: Cell uptake and uptake inhibition, stated across all cell lines tested; type: cell-based, rat; human; details: for mechanism of transport (in words): each of the cell lines tested; for relative cell uptake (in words): all cell lines
Protocol: Data are presented as percent ligand uptake of the initial dose per 0.5 million cells (% ID/5×10^5 cells).
as §2, §3, §4

[4] = tested on: human U87 ΔEGFR glioblastoma; assay: Cell uptake inhibition study in U87 ΔEGFR glioblastoma cells; type: cell-based
Protocol: as §2, with “This experiment establishes the degree to which a given amino acid is taken up by a group of cells in the absence of any perturbing conditions and serves as the control.” left out
With this information in hand, the cell uptake experiment is performed again, but in the presence of an excess of a substrate known to have a high affinity for a particular transport system. […] Consequently, any reduction in cellular uptake of radioactivity relative to the control experiment is assumed to arise from loss of amino acid transport by the inhibited system. […] Furthermore, the degree to which the system participates in transport can be roughly evaluated by the percent loss (inhibition) of amino acid uptake relative to the control. […]

rat 9 L gliosarcoma = details: 9 L gliosarcoma cells; cited from earlier work
[5] = MicroPET biodistribution in normal Fischer rats (bladder accumulation); type: in vivo; details: post injection
Protocol: DFACPC, and anti-3-[^18F] FACBC.
as §1
MicroPET biodistribution studies in normal Fischer rats established that bladder accumulation of [^18F]3.23 is delayed until at least 10 minutes post injection. In rats bearing intracranial 9 L gliosarcoma, [^18F]3.23 gave tumor uptake values of up to 1.2% injected dose per gram (% ID/g) and tumor to contralateral brain tissue ratios of up to 2.8.

[6] = 4.5-minute time point (highest for the tracer)
[7] = range over the three cell lines

Structure (SMILES): N[C@@]1(C(=O)O)C[C@@H]([18F])[C@@H](F)C1 [[^18F]3.33, syn-cis-[^18F]-1-amino-3,4-difluorocyclopentane-1-carboxylic acid]
L/N ratio [1, 6]: 4.3 | tumor uptake at final time point ([1]; 9 L tumor): 0.8 % ID/g | tumor uptake, peak value ([1]; 9 L tumor, peak / maximum): 1.2 % ID/g | background uptake in healthy brain [1]: 0.28-0.36 % ID/g

Structure (SMILES): N[C@]1(C(=O)O)C[C@@H](F)C1 [anti-3-[^18F]-FACBC, anti-1-amino-3-[^18F]fluorocyclobutane-1-carboxylic acid]
uptake in DU145 cells [2]: 20 % ID/5×10^5 cells | uptake levels, percent of the initial dose per 0.5 million cells ([3]; across all cell lines tested, no inhibitor, 30 min incubation): 6-20 % ID/5×10^5 cells | mechanism of transport (in words) [3]: primarily a substrate for system ASC | inhibition of uptake by BCH (system L) [3, 7]: 36-56% | inhibition of uptake by alanine, serine, and cysteine (system ASC) [3, 7]: 73-87%

Structure (SMILES): N[C@]1(C(=O)O)CCC[C@@H]1[18F] [anti-2-[^18F]-FACPC, anti-1-amino-2-[^18F] fluorocyclopentane-1-carboxylic acid]
inhibition of uptake by BCH (system L) (rat 9 L gliosarcoma): 71% | inhibition of uptake by MeAIB (system A) (rat 9 L gliosarcoma): 38% | inhibition of uptake by alanine, serine, and cysteine (system ASC) (rat 9 L gliosarcoma): 65%

Continued, in another order:

L/N ratio [1, 6]: 3.5 | tumor uptake, injected dose per gram of tissue ([1]; 9 L tumor, throughout the course of the study): 2.0-2.2 % ID/g | background uptake in healthy brain [1]: 0.59-0.96 % ID/g
Structure (SMILES): N[C@]1(C(=O)O)C[C@@H](F)[C@@H]([18F])C1 [[^18F]3.09, anti-cis-[^18F]-1-amino-3,4-difluorocyclopentane-1-carboxylic acid]
inhibition of uptake by BCH [4]: 50% | inhibition of uptake by alanine, serine, and cysteine [4]: 78% | uptake in DU145 cells [2]: 18 % ID/5×10^5 cells | relative cell uptake (in words) [3]: greater uptake than [^18F]3.33 in all cell lines

tumor uptake at final time point ([1]; 9 L tumor): 1.1 % ID/g | L/N ratio ([1]; 12.5-minute mark (maximum)): 2.8 | L/N ratio ([1]; 52.5 minutes): 2.4 | tumor to contralateral brain tissue ratios ([1]; maximum (up to)): up to 2.8 | background uptake in healthy brain [1]: 0.39-0.46 % ID/g | bladder accumulation delayed until [5]: at least 10 minutes
Structure (SMILES): N[C@]1(C(=O)O)C[C@@H](F)[C@H]([18F])C1 (racemic) [[^18F]3.23, trans-[^18F]-1-amino-3,4-difluorocyclopentane-1-carboxylic acid]
avidity of DU145 cells (in words) [2]: substantially greater avidity | uptake in DU145 cells, fold higher than [^18F]-FACBC [2]: 1.7 fold | uptake in DU145 cells, fold higher than the best cis-3,4-DFACPC analog [2]: ~2 fold | uptake in DU145 cells [2]: 34 % ID/5×10^5 cells | relative cell uptake (in words) [3]: greater uptake than [^18F]3.33 in all cell lines | mechanism of transport (in words) [3]: transported primarily via system L with some transport occurring via system ASC
